Test results reported in paper PMC3066655 (Journal of medicinal chemistry, 2011).

Legend:
σ2 receptor = target: T1, σ2 receptor (Rattus norvegicus, UniProt Q5U3Y7); experiment: σ2 receptor binding assay, [3H]-DTG, liver membrane homogenates; conditions: for D3/ σ2 ratio: ratio of D3 and σ2 Ki values
T1 sequence (Q5U3Y7 1-176): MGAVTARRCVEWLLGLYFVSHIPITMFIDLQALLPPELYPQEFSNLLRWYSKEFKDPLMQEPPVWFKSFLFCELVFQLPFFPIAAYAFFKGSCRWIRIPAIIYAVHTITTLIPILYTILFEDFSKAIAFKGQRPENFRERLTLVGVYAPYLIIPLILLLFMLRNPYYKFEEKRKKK

σ1 receptor = σ1 receptor (Cavia porcellus, UniProt Q60492); experiment: σ1 receptor binding assay; parameters: species or system guinea pig; conditions: ratio of D3 and σ1 Ki values
σ1 receptor, sequence (Q60492 whole entry): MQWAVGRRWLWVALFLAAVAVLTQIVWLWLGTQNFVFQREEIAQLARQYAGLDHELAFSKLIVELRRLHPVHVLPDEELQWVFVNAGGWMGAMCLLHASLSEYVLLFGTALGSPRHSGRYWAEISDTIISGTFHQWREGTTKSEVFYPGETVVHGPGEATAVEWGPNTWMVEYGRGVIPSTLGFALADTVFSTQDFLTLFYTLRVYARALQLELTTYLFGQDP

Row | SMILES | Ki (σ2 receptor) [nM] | D3/ σ2 ratio (σ2 receptor) | D3/ σ1 Ratio (σ1 receptor)
1 | COc1ccccc1N1CCN(CCCCNC(=O)c2ccc(CCF)cc2)CC1 [Compound 2, reference compound] | 2210 | – | –
2 | COc1ccccc1N1CCN(CCCCNC(=O)c2ccc(N(C)C)cc2)CC1 [Compound 1, 4-(Dimethylamino)-N-[4-(4-(2-methoxyphenyl)piperazin-1-yl)butyl]benzamide, reference compound] | 1570 | 1,970 | 1,573
3 | COc1ccccc1N1CCN(CCCCNC(=O)c2ccc(OCCOCCOCCF)cc2)CC1.O=C(O)C(=O)O [Compound 18c, 4-(2-(2-(2-Fluoroethoxy)ethoxy)ethoxy)-N-(4-(4-(2-methoxyphenyl)piperazin-1-l)butyl)benzamide] | 1120 | – | 1,159
4 | O=C(NC/C=C/CN1CCN(c2ccccc2OCCF)CC1)c1ccc(-c2ccsc2)cc1.O=C(O)C(=O)O [Compound 21e, 4-(Thiophen-3-yl)-N-(4-(4-(2-(2-fluoroethoxy)phenyl)piperazin-1-yl)-trans-but-2-enyl)benzamide] | 1320 | 1,200 | 7,076
5 | COc1ccccc1N1CCN(CCCCNC(=O)c2ccc(OCCF)cc2)CC1 [Compound 18a, 4-(2-Fluoroethoxy)-N-(4-(4-(2-methoxyphenyl)-piperazin-1-yl)-butyl)benzamide] | 660 ± 36 | – | –
6 | O=C(NC/C=C/CN1CCN(c2ccccc2OCCF)CC1)c1ccc(CCF)cc1.O=C(O)C(=O)O [Compound 21b, 4-(2-Fluoroethyl)-N-(4-(4-(2-(2-Fluoroethoxy)phenyl)piperazin-1-yl)-trans-butyl-2-enyl)benzamide] | 2020 | 1,839 | 6,541
